Experimental data published in ChEMBL document CHEMBL4376889, “Discovery of a Brain-Penetrant ATP-Competitive Inhibitor of the Mechanistic Target of Rapamycin (mTOR) for CNS Disorders” (J Med Chem, 2020).
The source made the active and inactive calls. The rule behind the calls is not given here.

Legend:
[1] = biological target: Phosphatidylinositol 4,5-bisphosphate 3-kinase catalytic subunit beta isoform (Homo sapiens, UniProt P42338); test: Inhibition of PI3Kbeta (unknown origin)
[2] = biological target: Phosphatidylinositol 4,5-bisphosphate 3-kinase catalytic subunit gamma isoform (Homo sapiens, UniProt P48736); test: Inhibition of PI3Kgamma (unknown origin)
[3] = biological target: Phosphatidylinositol 4,5-bisphosphate 3-kinase catalytic subunit delta isoform (Homo sapiens, UniProt O00329); test: Inhibition of PI3Kdelta (unknown origin)
Cytochrome P450 2C9 = Cytochrome P450 2C9 (Homo sapiens, UniProt P11712); test: Inhibition of CYP2C9 (unknown origin); assay type: ADME
[4] = Stability in rat liver microsomes assessed as intrinsic clearance; assay type: ADME, Microsome; settings: read-out: CLH
[5] = biological target: Serine/threonine-protein kinase mTOR (Mus musculus, UniProt Q9JLN9); test: Inhibition of mTOR in mouse MEF cells harboring TSC1 deletion mutant assessed as reduction in PS6 phosphorylation incuabted for 2 hrs alexa fluor 594 and Hoechst staining based fluorescence assay; assay type: cell-based
[6] = Stability in rat liver microsomes assessed as intrinsic clearance at 1 uM incubated for 30 mins by LC-MS/MS analysis; assay type: ADME, Microsome; settings: read-out: CLH
[7] = biological target: Myosin light chain kinase, smooth muscle (Homo sapiens) (UniProt Q15746); test: Inhibition of wild-type human […] MYLK (M854 to E1845 residues) expressed in mammalian expression system at 10000 nM by Kinomescan method
[8] = biological target: 1-phosphatidylinositol 3-phosphate 5-kinase (Homo sapiens) (UniProt Q9Y2I7); test: Inhibition of wild-type human partial length PIKFYVE (F1512 to C2098 residues) expressed in mammalian expression system at 10000 nM by Kinomescan method
[9] = biological target: Serine/threonine-protein kinase ATR (Homo sapiens, UniProt Q13535); test: Inhibition of ATR (unknown origin) assessed as reduction in CHK1 phosphorylation by cell based assay
[10] = Selectivity index, ratio of IC50 for ATM (unknown origin) to IC50 for inhibition of mTOR in mouse MEF cells harboring TSC1 deletion mutant; assay type: cell-based
[11] = biological target: DNA-dependent protein kinase catalytic subunit (Homo sapiens, UniProt P78527); test: Inhibition of DNAPK (unknown origin)
[12] = Clearance in C57BL/6 mouse at 1 mg/kg, iv or 5 mg/kg, po by HPLC analysis; assay type: ADME, organism-based; settings: in vivo
[13] = Half life in C57BL/6 mouse at 1 mg/kg, iv or 5 mg/kg, po by HPLC analysis; assay type: ADME, organism-based; settings: in vivo
[14] = AUC (0 to t) in Sprague-Dawley rat at 1 mg/kg, iv by HPLC analysis; assay type: ADME, organism-based; settings: in vivo
[15] = AUC (0 to t) in Sprague-Dawley rat at 3 mg/kg, po by HPLC analysis; assay type: ADME, organism-based; settings: in vivo
[16] = Clearance in Sprague-Dawley rat at 1 mg/kg, iv or 3 mg/kg, po by HPLC analysis; assay type: ADME, organism-based; settings: in vivo
[17] = Volume of distribution at steady state in Sprague-Dawley rat at 1 mg/kg, iv or 3 mg/kg, po by HPLC analysis; assay type: ADME, organism-based; settings: in vivo, read-out: Vdss
[18] = Protein binding in Sprague-Dawley rat plasma at 5 uM incubated for 4 hrs by LC-MS/MS analysis; assay type: ADME, cell-free; settings: read-out: PPB (converted)
[19] = Protein binding in Sprague-Dawley rat brain homogenate at 5 uM incubated for 4 hrs by LC-MS/MS analysis; assay type: ADME, tissue-based; settings: read-out: PB (converted)
[20] = biological target: Serine/threonine-protein kinase mTOR (Mus musculus) (UniProt Q9JLN9); test: Inhibition of mTOR in mouse primary cortical neuron harboring TSC1 deletion mutant assessed as reduction in PS6 phosphorylation incubated for 4 hrs by Western blot analysis
Cortical neurone = test: Inhibition of oversizing of mouse primary cortical neuron harboring TSC1 deletion mutant at 200 nM incubated for 7 days by immunofluorescence assay; assay type: functional, cell-based; settings: 168 h
[21] = biological target: Serine/threonine-protein kinase mTOR (Rattus norvegicus, UniProt P42346); test: Inhibition of mTOR in rat primary cortical neuron assessed as reduction in PS6 phosphorylation incubated for 4 hrs by Western blot analysis (reference value: 19 nM)
[22] = biological target: Serine/threonine-protein kinase mTOR (Rattus norvegicus, UniProt P42346, S2215F); test: Inhibition of mTOR S2215F mutant in rat primary cortical neuron assessed as reduction in PS6 phosphorylation incubated for 4 hrs by Western blot analysis (reference value: 19 nM)
[23] = biological target: Serine/threonine-protein kinase mTOR (Rattus norvegicus, UniProt P42346, S2215Y); test: Inhibition of mTOR S2215Y mutant in rat primary cortical neuron assessed as reduction in PS6 phosphorylation incubated for 4 hrs by Western blot analysis (reference value: 19 nM)
[24] = biological target: Serine/threonine-protein kinase mTOR (Rattus norvegicus, UniProt P42346, L1460P); test: Inhibition of mTOR L1460P mutant in rat primary cortical neuron assessed as reduction in PS6 phosphorylation incubated for 4 hrs by Western blot analysis (reference value: 19 nM)
[25] = biological target: Serine/threonine-protein kinase mTOR (Rattus norvegicus, UniProt P42346, C1483Y); test: Inhibition of mTOR C1483Y mutant in rat primary cortical neuron assessed as reduction in PS6 phosphorylation incubated for 4 hrs by Western blot analysis (reference value: 19 nM)
[26] = biological target: Serine/threonine-protein kinase mTOR (Rattus norvegicus, UniProt P42346, L2427P); test: Inhibition of mTOR L2427P mutant in rat primary cortical neuron assessed as reduction in PS6 phosphorylation incubated for 4 hrs by Western blot analysis (reference value: 19 nM)
[27] = biological target: Serine/threonine-protein kinase mTOR (Rattus norvegicus, UniProt P42346, E2419K); test: Inhibition of mTOR E2419K mutant in rat primary cortical neuron assessed as reduction in PS6 phosphorylation incubated for 4 hrs by Western blot analysis (reference value: 19 nM)
Mus musculus [28] = test: In vivo inhibition of mTOR pathway in C57BL/6J mouse assessed as reduction in mTORC1/mTORC2 complex by measuring PS6 phosphorylation level at 1 to 10 mg/kg, po measured after 8 hrs by Western blot analysis; assay type: functional, organism-based
[29] = Drug uptake in C57BL/6J mouse plasma at 3 mg/kg, po incubated for 3 hrs by LC-MS/MS analysis; assay type: ADME, organism-based
[30] = Ratio of drug concentration in brain to plasma in C57BL/6J mouse at 10 mg/kg, po incubated for 3 hrs by LC-MS/MS analysis; assay type: ADME, organism-based; settings: read-out: BPR
Mus musculus [31] = test: Protection against C57BL/6J mouse model of neuronal mTOR hyperactivity assessed as survival rate at 10 mg/kg, ip administered on postnatal day 22 daily and measured on postnatal day 36 (reference value: 48 %); assay type: functional

Chain of Cytochrome P450 2C9 (P11712 whole entry): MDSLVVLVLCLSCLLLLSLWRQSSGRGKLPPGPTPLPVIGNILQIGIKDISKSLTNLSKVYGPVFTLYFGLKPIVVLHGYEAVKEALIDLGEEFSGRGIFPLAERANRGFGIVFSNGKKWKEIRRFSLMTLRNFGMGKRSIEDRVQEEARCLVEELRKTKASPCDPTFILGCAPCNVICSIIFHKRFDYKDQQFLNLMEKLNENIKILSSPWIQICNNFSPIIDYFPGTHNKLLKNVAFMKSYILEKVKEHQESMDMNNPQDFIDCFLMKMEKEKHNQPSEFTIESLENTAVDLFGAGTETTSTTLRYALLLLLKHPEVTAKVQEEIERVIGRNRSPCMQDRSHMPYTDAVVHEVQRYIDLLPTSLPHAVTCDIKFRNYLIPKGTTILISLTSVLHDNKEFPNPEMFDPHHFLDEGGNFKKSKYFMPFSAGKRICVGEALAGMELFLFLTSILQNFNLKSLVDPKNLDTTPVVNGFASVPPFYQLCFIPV
Chain of Phosphatidylinositol 4,5-bisphosphate 3-kinase catalytic subunit beta isoform (P42338 whole entry, canonical isoform): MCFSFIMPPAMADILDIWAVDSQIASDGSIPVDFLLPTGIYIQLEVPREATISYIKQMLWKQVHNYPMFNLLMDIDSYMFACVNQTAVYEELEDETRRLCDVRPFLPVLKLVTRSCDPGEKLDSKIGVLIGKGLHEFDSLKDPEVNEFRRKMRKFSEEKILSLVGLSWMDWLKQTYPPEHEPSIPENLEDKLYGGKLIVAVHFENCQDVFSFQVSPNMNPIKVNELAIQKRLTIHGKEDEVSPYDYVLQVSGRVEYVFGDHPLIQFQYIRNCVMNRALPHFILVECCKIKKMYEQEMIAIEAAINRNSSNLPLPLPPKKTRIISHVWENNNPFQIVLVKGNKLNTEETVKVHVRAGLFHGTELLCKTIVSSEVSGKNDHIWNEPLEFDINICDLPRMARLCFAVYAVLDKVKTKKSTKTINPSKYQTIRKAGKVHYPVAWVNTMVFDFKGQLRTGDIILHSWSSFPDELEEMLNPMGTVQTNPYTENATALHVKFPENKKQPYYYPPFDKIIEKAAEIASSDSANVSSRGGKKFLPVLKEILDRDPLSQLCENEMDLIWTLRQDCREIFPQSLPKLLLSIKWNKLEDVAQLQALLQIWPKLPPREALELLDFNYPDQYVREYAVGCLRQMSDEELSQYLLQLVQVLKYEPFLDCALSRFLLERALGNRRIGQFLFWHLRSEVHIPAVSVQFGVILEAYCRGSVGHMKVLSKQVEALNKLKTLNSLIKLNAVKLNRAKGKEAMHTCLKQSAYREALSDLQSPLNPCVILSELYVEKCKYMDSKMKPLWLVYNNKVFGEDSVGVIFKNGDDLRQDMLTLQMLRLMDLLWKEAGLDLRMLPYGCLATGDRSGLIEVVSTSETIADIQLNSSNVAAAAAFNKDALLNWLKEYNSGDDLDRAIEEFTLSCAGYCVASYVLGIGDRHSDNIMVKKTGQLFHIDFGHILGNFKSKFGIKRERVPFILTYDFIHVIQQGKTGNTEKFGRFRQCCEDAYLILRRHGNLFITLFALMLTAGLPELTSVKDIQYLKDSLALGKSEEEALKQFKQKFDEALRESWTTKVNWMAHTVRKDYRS
Chain of Phosphatidylinositol 4,5-bisphosphate 3-kinase catalytic subunit delta isoform (O00329 whole entry, canonical isoform): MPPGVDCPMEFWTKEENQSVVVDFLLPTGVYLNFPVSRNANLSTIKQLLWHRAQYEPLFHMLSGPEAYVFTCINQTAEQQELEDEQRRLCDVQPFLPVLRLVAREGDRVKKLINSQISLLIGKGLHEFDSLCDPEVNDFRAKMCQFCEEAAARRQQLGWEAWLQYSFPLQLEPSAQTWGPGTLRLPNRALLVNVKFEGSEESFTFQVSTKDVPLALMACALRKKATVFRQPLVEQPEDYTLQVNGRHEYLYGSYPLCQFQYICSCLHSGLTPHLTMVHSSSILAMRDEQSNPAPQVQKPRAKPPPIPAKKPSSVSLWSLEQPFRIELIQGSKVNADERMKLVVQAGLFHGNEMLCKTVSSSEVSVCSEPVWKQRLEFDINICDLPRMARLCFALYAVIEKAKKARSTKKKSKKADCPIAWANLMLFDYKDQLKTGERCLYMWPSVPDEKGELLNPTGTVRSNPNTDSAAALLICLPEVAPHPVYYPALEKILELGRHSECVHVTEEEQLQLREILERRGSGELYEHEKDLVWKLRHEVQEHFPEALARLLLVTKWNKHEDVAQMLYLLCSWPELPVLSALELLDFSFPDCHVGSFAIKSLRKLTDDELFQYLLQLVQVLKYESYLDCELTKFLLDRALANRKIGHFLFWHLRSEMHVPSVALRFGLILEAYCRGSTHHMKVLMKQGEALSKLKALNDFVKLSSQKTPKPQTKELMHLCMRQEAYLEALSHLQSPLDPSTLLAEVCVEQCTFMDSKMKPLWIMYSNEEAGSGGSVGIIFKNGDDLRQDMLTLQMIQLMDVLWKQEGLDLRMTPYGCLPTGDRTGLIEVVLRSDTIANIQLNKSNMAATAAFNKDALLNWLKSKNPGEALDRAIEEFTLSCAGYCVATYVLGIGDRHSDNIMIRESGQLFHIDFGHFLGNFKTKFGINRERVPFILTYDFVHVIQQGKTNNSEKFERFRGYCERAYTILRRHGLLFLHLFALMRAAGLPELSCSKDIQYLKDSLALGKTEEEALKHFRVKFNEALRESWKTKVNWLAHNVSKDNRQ
Chain of 1-phosphatidylinositol 3-phosphate 5-kinase (Homo sapiens) (Q9Y2I7 whole entry, the tested form may be a part): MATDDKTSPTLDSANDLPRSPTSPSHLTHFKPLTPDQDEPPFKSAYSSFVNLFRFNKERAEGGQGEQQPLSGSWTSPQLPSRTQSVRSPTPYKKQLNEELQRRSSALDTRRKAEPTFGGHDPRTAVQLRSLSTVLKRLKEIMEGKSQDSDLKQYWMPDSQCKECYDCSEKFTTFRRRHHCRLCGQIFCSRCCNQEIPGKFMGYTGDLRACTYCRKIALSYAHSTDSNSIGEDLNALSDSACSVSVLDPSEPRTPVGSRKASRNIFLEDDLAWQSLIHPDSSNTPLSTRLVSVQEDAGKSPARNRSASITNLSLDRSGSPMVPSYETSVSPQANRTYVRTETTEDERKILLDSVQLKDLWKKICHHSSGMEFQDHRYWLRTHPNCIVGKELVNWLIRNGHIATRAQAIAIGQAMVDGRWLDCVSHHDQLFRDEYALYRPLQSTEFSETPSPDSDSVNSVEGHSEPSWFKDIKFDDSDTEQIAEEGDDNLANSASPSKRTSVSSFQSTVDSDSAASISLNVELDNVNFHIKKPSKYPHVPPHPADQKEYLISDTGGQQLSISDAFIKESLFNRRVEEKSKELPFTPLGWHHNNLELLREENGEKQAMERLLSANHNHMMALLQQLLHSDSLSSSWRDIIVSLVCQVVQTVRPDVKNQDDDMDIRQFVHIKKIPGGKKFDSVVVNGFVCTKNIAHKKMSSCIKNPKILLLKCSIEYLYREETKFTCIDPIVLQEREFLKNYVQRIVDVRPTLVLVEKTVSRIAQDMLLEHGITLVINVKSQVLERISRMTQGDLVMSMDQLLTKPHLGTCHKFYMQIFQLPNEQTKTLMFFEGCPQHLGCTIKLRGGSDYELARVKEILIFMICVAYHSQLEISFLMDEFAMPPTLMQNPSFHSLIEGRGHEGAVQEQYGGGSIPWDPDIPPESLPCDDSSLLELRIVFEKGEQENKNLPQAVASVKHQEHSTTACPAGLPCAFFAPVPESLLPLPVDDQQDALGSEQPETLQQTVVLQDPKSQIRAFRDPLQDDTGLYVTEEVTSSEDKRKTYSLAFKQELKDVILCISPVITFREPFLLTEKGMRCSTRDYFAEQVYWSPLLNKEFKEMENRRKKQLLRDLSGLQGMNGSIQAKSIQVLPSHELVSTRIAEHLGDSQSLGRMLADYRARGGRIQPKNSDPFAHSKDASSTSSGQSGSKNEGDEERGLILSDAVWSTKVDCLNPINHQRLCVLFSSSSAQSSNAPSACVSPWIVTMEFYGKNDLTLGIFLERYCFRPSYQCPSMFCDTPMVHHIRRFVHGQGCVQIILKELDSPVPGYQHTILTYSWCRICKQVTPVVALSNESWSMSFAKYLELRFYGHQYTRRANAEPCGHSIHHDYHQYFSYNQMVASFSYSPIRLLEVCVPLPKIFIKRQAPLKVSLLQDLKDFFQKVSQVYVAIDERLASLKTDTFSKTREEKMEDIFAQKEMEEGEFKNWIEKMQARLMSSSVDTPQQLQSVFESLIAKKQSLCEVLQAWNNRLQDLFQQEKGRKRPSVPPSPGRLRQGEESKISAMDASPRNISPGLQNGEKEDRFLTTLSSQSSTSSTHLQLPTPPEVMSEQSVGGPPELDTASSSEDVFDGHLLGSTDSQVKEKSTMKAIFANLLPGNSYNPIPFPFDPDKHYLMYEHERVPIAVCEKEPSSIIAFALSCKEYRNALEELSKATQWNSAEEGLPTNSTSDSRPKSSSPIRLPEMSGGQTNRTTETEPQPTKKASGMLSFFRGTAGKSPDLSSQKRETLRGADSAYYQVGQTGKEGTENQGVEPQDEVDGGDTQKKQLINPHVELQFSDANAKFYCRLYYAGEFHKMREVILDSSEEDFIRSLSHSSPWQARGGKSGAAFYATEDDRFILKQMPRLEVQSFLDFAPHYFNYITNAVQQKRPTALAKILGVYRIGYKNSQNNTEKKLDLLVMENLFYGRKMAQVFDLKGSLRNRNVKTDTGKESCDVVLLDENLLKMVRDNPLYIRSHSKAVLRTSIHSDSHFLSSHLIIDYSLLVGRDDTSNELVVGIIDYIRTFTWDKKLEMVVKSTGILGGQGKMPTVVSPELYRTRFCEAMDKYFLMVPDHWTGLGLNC

C[C@@H]1COCCN1c1nc(N2CCOC[C@@H]2C)nc2sc(-c3cc[nH]n3)nc12
IC50 [1]: > 10000 nM | IC50 [2]: > 10000 nM | IC50 [3]: 1700 nM | IC50 (Cytochrome P450 2C9): > 50000 nM | microsomal CLint [4]: 42 µL/min/mg | IC50 [5]: 5.6 nM | microsomal CLint at 1 µM [6]: 42 µL/min/mg | inhibition [7]: Active | inhibition [8]: Active | IC50 [9]: 394 nM | Ratio IC50 [10]: 3570 | IC50 [11]: 1290 nM | clearance [12]: 6.5 mL/min/kg | half-life [13]: 4.3 h | AUC(0-t) [14]: 4.34 µM·h | AUC(0-t) [15]: 10.5 µM·h | clearance [16]: 9.5 mL/min/kg | Vd [17]: 2.6 L/kg | fraction unbound at 4 h, 5 µM [18]: 0.012 | fraction unbound at 4 h, 5 µM [19]: 0.004 | inhibition [20]: Dose-dependent effect | IC50 (Cortical neurone): 30 nM | IC50 [21]: 17 nM | IC50 [22]: 17 nM | IC50 [23]: 14 nM | IC50 [24]: 11 nM | IC50 [25]: 37 nM | IC50 [26]: 24 nM | IC50 [27]: 22 nM | inhibition (Mus musculus [28]): Active | concentration at 3 h [29]: 2210 nM | Kp at 3 h [30]: 1.3 | Activity (Mus musculus [31]): 95%
